These results are taken from ChEMBL document CHEMBL1221165, “Actin is the primary cellular receptor of bistramide A” (Nat Chem Biol, 2005).

Assay [1] deals with RBL-2H3. Nature of the assay: Induction of GFP-PKCdelta translocation from cytoplasm to nuclear in RBL2H3 cells at 200 nM over 30 mins by fluorescent imaging. Format: functional, cell-based. Particulars: Rattus norvegicus.
Assay [2] has as its system RBL-2H3. Nature of the assay: Induction of GFP-PKCdelta translocation from cytoplasm to plasma membrane in RBL2H3 cells at 200 nM over 30 mins by fluorescent imaging. Type of assay: functional, cell-based. Particulars: Rattus norvegicus.
Assay [3] relates to RBL-2H3. Nature of the assay: Induction of GFP-PKCdelta translocation from cytoplasm to nuclear in RBL2H3 cells at 5 uM over 30 mins by fluorescent imaging. Particulars: Rattus norvegicus. Type of assay: functional, cell-based.
Assay [4] deals with PC-3. Kind of assay: Cytotoxicity against human PC3 cells assessed as growth inhibition after 48 hrs. Format: functional. The following applies: PC-3, 48 h.
In assay [5] the test system is HL-60. Nature of the assay: Cytotoxicity against human HL60 cells assessed as cell viability after 48 hrs. Format: functional, cell-based. The following applies: HL-60, 48 h.
For assay [6], the system named is MCF7. Nature of the assay: Cell cycle arrest in human MCF7 cells assessed as accumulation at S phase at 1 uM after 48 hrs (Rbv = 18%). Format: functional.
The test system of assay [7] is CA46. Kind of assay: Antiproliferative activity against human CA46 cells assessed as mitotic cells at 1 uM after 48 hrs by visual examination (Rbv = 3%). Type of assay: functional.
Assay [8] concerns HCT-116. Kind of assay: Cytotoxicity against human HCT116 cells assessed as growth inhibition after 48 hrs. Type of assay: functional. Particulars: HCT-116, 48 h.
Assay [9] has as its system PC-3. Kind of assay: Dissolution of filamentous actin in human PC3 cells at 20 nM within 15 mins by using FITC-phallodin staining by fluorescent microscopy. Format: functional, cell-based.
The target of assay [10] is T1, Protein kinase C delta type (Homo sapiens, UniProt Q05655). Nature of the assay: Displacement of [3H]PDBu from human recombinant PKCdelta by competitive binding assay.
Target sequence in this assay (Q05655 whole entry): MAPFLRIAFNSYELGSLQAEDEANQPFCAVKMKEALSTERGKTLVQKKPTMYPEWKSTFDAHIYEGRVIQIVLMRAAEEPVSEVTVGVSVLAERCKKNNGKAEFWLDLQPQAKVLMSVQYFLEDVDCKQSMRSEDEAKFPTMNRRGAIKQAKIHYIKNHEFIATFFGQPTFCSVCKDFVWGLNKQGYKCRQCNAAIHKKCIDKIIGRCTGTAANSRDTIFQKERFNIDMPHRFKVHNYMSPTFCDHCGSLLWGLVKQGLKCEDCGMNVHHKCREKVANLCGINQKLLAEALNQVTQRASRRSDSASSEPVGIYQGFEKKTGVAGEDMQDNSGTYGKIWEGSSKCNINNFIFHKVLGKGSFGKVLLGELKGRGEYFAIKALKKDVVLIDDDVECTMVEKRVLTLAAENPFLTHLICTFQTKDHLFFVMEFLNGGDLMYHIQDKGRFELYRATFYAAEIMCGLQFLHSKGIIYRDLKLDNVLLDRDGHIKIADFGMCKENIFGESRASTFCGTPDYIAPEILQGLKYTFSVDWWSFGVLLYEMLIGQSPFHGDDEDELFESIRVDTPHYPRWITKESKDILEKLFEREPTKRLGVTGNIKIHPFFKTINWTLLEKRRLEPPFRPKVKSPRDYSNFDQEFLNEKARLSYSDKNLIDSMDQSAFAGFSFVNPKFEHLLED
Assay [11] concerns HCT-116. Nature of the assay: Cytotoxicity against human HCT116 cells assessed as cell viability after 48 hrs. Format: functional, cell-based. Particulars: HCT-116, 48 h.
The test system of assay [12] is HL-60. Nature of the assay: Cell cycle arrest in human HL60 cells assessed as accumulation at G1 phase at 0.5 uM after 48 hrs (Rbv = 38%). Type of assay: functional.
Assay [13] deals with PC-3. Kind of assay: Cytotoxicity against human PC3 cells assessed as cell viability after 48 hrs. Type of assay: functional, cell-based. The following applies: PC-3, 48 h.
In assay [14] the test system is A549. Kind of assay: Increase in dissolution of filamentous actin in human A549 cells at 120 to 450 nM by using FITC-phallodin staining by fluorescent microscopy. Format: cell-based.
Assay [15] deals with HL-60. Kind of assay: Cytotoxicity against human HL60 cells assessed as growth inhibition after 48 hrs. Type of assay: functional. Particulars: HL-60, 48 h.
The nature of assay [16]: Depolymerization of Ca2+ filamentous actin in human A549 cells at 450 nM by using FITC-phallodin staining. Format: cell-based.
For assay [17], the system named is PC-3. Kind of assay: Cell cycle arrest in human PC3 cells assessed as accumulation at G2/M phase at 1 uM after 48 hrs (Rbv = 19%). Type of assay: functional.
The test system of assay [18] is A549. Nature of the assay: Inhibition of globular actin polymerization at steady state in human A549 cells assessed as change in fluorescence intensity. Format: cell-based.
For assay [19], the system named is HL-60. Nature of the assay: Cell cycle arrest in human HL60 cells assessed as accumulation at S phase at 0.5 uM after 48 hrs (Rbv = 44%). Format: functional.
The subject of assay [20] is CA46. Kind of assay: Antiproliferative activity against human CA46 cells assessed as binucleated cells at 1 uM after 48 hrs by visual examination (Rbv = 6%). Type of assay: functional.
Assay [21] relates to A549. Kind of assay: Dissolution of filamentous actin in human A549 cells after 1 hr by using FITC-phallodin staining by fluorescent microscopy. Format: cell-based.
Assay [22] deals with Protein kinase C delta type (Rattus norvegicus) (UniProt P09215). Nature of the assay: Induction of rat recombinant PKCdelta activity.
Assay [23] addresses T1, Protein kinase C delta type. Nature of the assay: Induction of human recombinant PKCdelta assessed as phosphorylation of amphiphilic peptide substrate at 0.1 uM in presence of 10 uM phosphatidylserine relative to control.
Target sequence in this assay (Q05655 whole entry, looked up): as the sequence (Q05655 whole entry) above
The test system of assay [24] is MCF7. Nature of the assay: Cell cycle arrest in human MCF7 cells assessed as accumulation at G1 phase at 1 uM after 48 hrs (Rbv = 73%). Format: functional.
For the next assay, the species on record is Oryctolagus cuniculus. Nature of the assay: (§1) Binding affinity to rabbit skeletal muscle monomeric actin by isothermal calorimetric method. Format: tissue-based. Particulars: Muscle tissue. Background: Isothermal titration calorimetry measures the heat released or taken up as one component is titrated into another.
Assay [25] has as its system CA46. Nature of the assay: Cell cycle arrest in human CA46 cells assessed as accumulation at G0/G1 phase at 1 uM after 48 hrs. Format: functional, cell-based.
For assay [26], the system named is PC-3. Nature of the assay: Cell cycle arrest in human PC3 cells assessed as accumulation at G1 phase at 1 uM after 48 hrs (Rbv = 58%). Type of assay: functional.
Assay [27] has as its system CA46. Nature of the assay: Cell cycle arrest in human CA46 cells assessed as accumulation at G2/M phase at 1 uM after 48 hrs. Format: functional, cell-based.
The subject of assay [28] is A549. Nature of the assay: Dissolution of filamentous actin in human A549 cells at 50 to 150 nM by using FITC-phallodin staining by fluorescent microscopy. Type of assay: cell-based. The following applies: TDE = time-dependent effect.
The subject of assay [29] is MCF7. Nature of the assay: Cell cycle arrest in human MCF7 cells assessed as accumulation at G2/M phase at 1 uM after 48 hrs (Rbv = 7%). Format: functional.
For assay [30], the system named is MCF7. Nature of the assay: Cell cycle arrest in human MCF7 cells assessed as accumulation at G0/G1 phase at 1 uM after 48 hrs (Rbv = 74%). Type of assay: functional.
Assay [31] relates to A549. Kind of assay: Cytotoxicity against human A549 cells assessed as cell viability after 48 hrs. Type of assay: functional, cell-based. The following applies: A549, 48 h.
For the next assay, the system named is CHO-K1. Nature of the assay: Dissolution of filamentous actin in chinese hamster CHOK1 cells at 20 nM within 15 mins by using FITC-phallodin staining by fluorescent microscopy. Type of assay: cell-based. The following applies: Cricetulus griseus.
For assay [32], the system named is PC-3. Kind of assay: Cell cycle arrest in human PC3 cells assessed as accumulation at S phase at 1 uM after 48 hrs (Rbv = 18%). Format: functional.
Assay [33] in a line: Depolymerization of Mg2+ filamentous actin in human A549 cells at 450 nM by using FITC-phallodin staining. Format: cell-based.
Assay [34] in a line: Binding affinity to rabbit skeletal muscle globular actin by isothermal calorimetric method. Type of assay: tissue-based, Oryctolagus cuniculus, Muscle tissue.
Assay [35] concerns the target T1, Protein kinase C delta type. Nature of the assay: Induction of human recombinant PKCdelta assessed as phosphorylation of amphiphilic peptide substrate at 1 uM in presence of 10 uM phosphatidylserine relative to control.
Target sequence in this assay (Q05655 whole entry, looked up): as the sequence (Q05655 whole entry) above
Assay [36] has as its system A549. Kind of assay: Cytotoxicity against human A549 cells assessed as growth inhibition after 48 hrs. Format: functional. The following applies: A549, 48 h.
The test system of assay [37] is HL-60. Nature of the assay: Cell cycle arrest in human HL60 cells assessed as accumulation at G2/M phase at 0.5 uM after 48 hrs (Rbv = 11%). Format: functional.
In the next assay the test system is PtK2. Nature of the assay: Dissolution of filamentous actin in […] PtK2 cells at 20 nM within 15 mins by using FITC-phallodin staining by fluorescent microscopy. Type of assay: cell-based.
A short description of assay [38]: Inhibition of actin polymerization.
Assay [39] in a line: as §1. Format: tissue-based, Oryctolagus cuniculus, Muscle tissue.

Activity calls are given as the source filed them. The calls are words filed in the database; no cut-off is given here.

Sequence of Protein kinase C delta type (Rattus norvegicus) (P09215 whole entry): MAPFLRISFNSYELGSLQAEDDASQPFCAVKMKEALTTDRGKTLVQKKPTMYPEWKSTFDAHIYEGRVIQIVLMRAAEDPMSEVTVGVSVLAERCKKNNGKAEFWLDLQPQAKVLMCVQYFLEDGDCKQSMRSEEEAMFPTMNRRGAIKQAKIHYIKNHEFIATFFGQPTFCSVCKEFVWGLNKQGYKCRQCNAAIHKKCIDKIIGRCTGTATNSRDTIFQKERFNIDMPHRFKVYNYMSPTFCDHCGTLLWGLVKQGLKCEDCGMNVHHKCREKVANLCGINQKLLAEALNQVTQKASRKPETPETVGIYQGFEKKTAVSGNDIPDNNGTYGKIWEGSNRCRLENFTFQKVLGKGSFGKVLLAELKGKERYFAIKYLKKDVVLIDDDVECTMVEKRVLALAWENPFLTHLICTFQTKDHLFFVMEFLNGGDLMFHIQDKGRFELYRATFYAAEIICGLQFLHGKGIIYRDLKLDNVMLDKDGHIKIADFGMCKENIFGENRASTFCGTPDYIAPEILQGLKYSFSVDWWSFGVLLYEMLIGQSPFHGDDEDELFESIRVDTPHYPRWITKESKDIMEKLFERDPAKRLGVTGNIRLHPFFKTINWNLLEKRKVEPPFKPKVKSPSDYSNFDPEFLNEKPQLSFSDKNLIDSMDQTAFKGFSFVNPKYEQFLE

With `CCC/C=C/C=C/C(=O)O[C@H]1/C(=C/C(=O)OC)C[C@H]2C[C@H]([C@@H](C)O)OC(=O)C[C@H](O)C[C@@H]3C[C@H](OC(C)=O)C(C)(C)[C@](O)(C[C@@H]4C/C(=C/C(=O)OC)C[C@H](/C=C/C(C)(C)[C@]1(O)O2)O4)O3`, the outcome with RBL-2H3 [1] and with RBL-2H3 [2] was Active.
The term GI50 denotes the concentration at which growth is held to half of that of the control. One may read the IC50 as the concentration needed to halve the response being measured. One may read the Ki as a measure of affinity in units of concentration, obtained from inhibition or displacement. Usually Kd stands for the constant that tells how readily two partners part at equilibrium. Read a low Kd as a tighter complex. With `C/C=C/C(=O)C[C@H]1CC[C@H](C)[C@H](CC(=O)NC[C@H](O)[C@H](C)C(=O)NCCC[C@H]2O[C@@]3(CCC[C@H](CC[C@H](C)/C=C(\C)[C@H](C)O)O3)CC[C@@H]2C)O1` [BISTRAMIDE A], the outcome (in the assay with RBL-2H3 [3]; in assay [22]) was inactive. For the same compound, the GI50 with PC-3 [4] stood at 5 nM; in the assay on HCT-116 [8], 200 nM; in the assay with HL-60 [15] it was 200 nM; in the assay with A549 [36] it was 13 nM. In addition, the IC50 is above 1000 nM in the assay on HL-60 [5], 437 nM in the assay on HCT-116 [11], 107 nM with PC-3 [13] and 63 nM with A549 [31]. In addition, the Activity with MCF7 [6] is reported as 24%; in the assay on CA46 [7], 4%; in the assay with HL-60 [12], 18%; in the assay on PC-3 [17], 43%; with HL-60 [19], 48%; with CA46 [20], 48%. Further, the Activity result was “Dose-dependent effect” with A549 [21]; 33% with MCF7 [24]; 37% in the assay on PC-3 [26]; “tde” with A549 [28]; 38% in the assay on MCF7 [29]; 33% with MCF7 [30]. For the same compound, the Activity in the assay with PC-3 [32] turned out to be 14%; in the assay with HL-60 [37] it was 27%. For the same compound, the outcome (with PC-3 [9]; in the assay with A549 [14]; in [16]; in the assay with CA46 [25]; in the assay on CA46 [27]; in the assay on CHO-K1) was Active. Besides, the outcome (in assay [33]; in the assay with PtK2) was Active. Besides, the Ki in [10] stood at 27000 nM. For the same compound, in the assay with A549 [18], the inhibition result was “Dose-dependent effect”. Besides, the fold change (FC) turned out to be 4.5 in assay [23] and 3.8 in assay [35]. This compound gave a Ka in the assay filed under Oryctolagus cuniculus of 1.46 ×10⁸ /M. Besides, the Kd in assay [34] worked out at 7 nM.
For the compound `C/C1=C/C(=O)O[C@@H]2C[C@@H](CC[C@H](C)/C=C\C=C\CC1)O[C@@](O)([C@@H]1CSC(=O)N1)C2` [LATRUNCULIN A], the Kd in assay [38] worked out at 200 nM; in [39], 170 nM.
